Results as given in patent publication US20250325516A1, “SEROTONIN ANALOGUES FOR USE IN TREATING METALLOPTOSIS-ASSOCIATED DISORDERS” (INSTITUT CURIE, priority 2022, published 2025).
Entries after “also recorded” stand apart in the source; their conditions may differ. Structures can show the parent of a compound that is named as a salt.

What was measured:
[1] = tested on: PDAC cells; experiment: Anti-ferroptotic activity: BODIPY-C11 flow cytometry, PDAC cells co-treated with RSL3 (FIG. 8); assay type: cell-based; conditions: RSL3 200 nM, compounds 10 μM
Description: (§1) Pancreatic Ductal Adenocarcinoma (PDAC) cells were grown at 37° C. and 5% CO2 using medium prepared based on previously described (https://doi.org/10.1053/j.gastro.2004.03.058).
PDAC cells were seeded on 6 well plates at the density of 2×10^5 cells/well. RSL3 (200 nM) was added along with compounds (10 μM for screening) on the following day and after 23 hr, BODIPY (4 μM) was added for 1 hr. The media was removed and the cells were washed with PBS twice before typsinization. The cells were harvested, pelleted, washed with PBS and finally PBS buffer containing 10% FBS and EDTA, was added for flow cytometry. The results are shown in FIG. 8 and this enabled us to establish a robust structure activity relationship on the serotonin scaffold.

[2] = tested on: PDAC cells; experiment: Click-labelling fluorescence microscopy with LysoTracker and organelle antibodies, PDAC cells (FIG. 9); assay type: cell-based; conditions: 10 μM, 3 h
Description: Pancreatic Ductal Adenocarcinoma (PDAC) cells were grown at 37° C. and 5% CO2 using medium prepared based on previously described (https://doi.org/10.1053/j.gastro.2004.03.058). Cells were plated on cover slips 24 h prior to the experiment. The cells were treated with 10 µM of compounds for 3 h and LysoTracker Deep Red (ThermoFisher Scientific L12492, 1:10000) according to the manufacturer's protocol. Subsequently, cells were washed three times with 1×PBS and fixed with 2% paraformaldehyde (w/v) in 1×PBS for 12 min, and then washed three times with 1×PBS. After fixation, cells were permeabilized with 0.1% Triton X-100 (v/v) in 1×PBS for 5 min and washed three times with 1×PBS. Then, cells were blocked in 2% BSA, 0.2% Tween-20 (w/v)/1×PBS (blocking buffer) for 20 min at RT. The click reaction cocktail was prepared from Click-iT EdU Imaging Kits (ThermoFisher Scientific, C10337) according to the manufacturer's protocol. Briefly, 868 μL of 1× Click-iT reaction buffer was mixed with 40 μl CuSO4 solution, 2 μL Alexa Fluor azide and 90 μl reaction buffer additive (sodium ascorbate) to reach a final volume of 1 mL. Cover slips were incubated with 50 μl of the click reaction cocktail in the dark at RT for 30 minutes, then washed three times with 1×PBS. Further, cells were incubated with the relevant antibody in blocking buffer for 1 h at room temperature and washed three times with blocking buffer. Then, cells were incubated with secondary antibodies for 1 h. Finally, cover slips were washed three times with 1×PBS and mounted using VECTASHIELD (Vector Laboratories) containing DAPI and were sealed with nail varnish Express manucure (Maybelline, 16P201). Fluorescence images were acquired using a Deltavision real-time microscope (Applied Precision). 100×/1.4NA objectives were used for 2D and 3D acquisitions that were deconvoluted with SoftWorx (Ratio conservative-10 iterations, Applied Precision) and processed with ImageJ.

[3] = Cyclic voltammetry of FeCl3 after addition of compounds (FIG. 10b); assay type: binding; conditions: 1 mM FeCl3 in 0.3 M nBu4NBF4 in MeCN, scan rate 2 V/s
Description: Cyclic voltammetry experiments were performed with a three-electrode cell under argon. Saturated Calomel Electrode (SCE) was used as reference, a steady Glassy Carbon (GC) electrode of diameter 3 mm was selected as working electrode and a Platinum wire as counter-electrode. All cyclic voltammograms were recorded at RT with a μ-autolab III from Metrohm using Nova software with a scan rate of 2 V/s. MeCN was used as a degassed HPLC grade from Carlo Erba. Water was mQ H2O. Stock solution of FeCl3 (100 mM) and Lip-1, A3, A0 and DFO (20 mM) were prepared with 0.3 M nBu4NBF4 in MeCN. 1 mM FeCl3 in 0.3 M nBu4NBF4 in MeCN (1 mL) was used as working solution for recording and subsequently equivalents of compounds were added, stirred and recorded.

[4] = Colorimetric assessment of metal complex formation in aqueous solution; assay type: binding; conditions: for colour of solution in the presence of FeCl3 and CuSO4, indicative of complex formation: aqueous solution, 3 equiv. compound, C=0.1 M; for complex formation with Fe(II), Fe(III) and Cu(II): colorimetric complexation studies in solution (FIG. 1) and NMR spectroscopy (FIG. 2)
Description: […] assessment of complex formation: To an aqueous solution of serotonin hydrochloride (3 equiv., C=0.1 M) or A3 formic salt (3 equiv., C=0.1 M) iron (III) chloride (1 equiv.) or copper (II) sulfate (C=0.1 M) was added. A color change characterized the formation of metal complexes.

[5] = tested on: HMLER cells; experiment: Click-chemistry fluorescence microscopy with LysoTracker co-staining, HMLER cells; assay type: cell-based, human; conditions: 1 μM, 3 h, LysoTracker 45 mins, Alexa-488-N3 click
Description: (§2) All cells were grown in an incubator equilibrated at 37° C. with 5% CO2, grown to confluence and split with Trypsin/EDTA (Gibco, TRYPGIB01) once or twice a week according to confluence. HMLER cells ([…]) naturally repressing E-cadherin, obtained from human mammary epithelial cells infected with a retrovirus carrying hTERT, SV40 and the oncogenic allele H-rasV12, and HMLER CD44 and TFRC ko clones were cultured in DMEM/F12 (Thermo Fisher Scientific, 31331093) supplemented with 10% FBS (v/v) (Thermo Fisher Scientific, 10270106), 10 μg/mL insulin (Sigma-Aldrich, 10516), 0.5 μg/mL hydrocortisone (Sigma-Aldrich, H0888) and 0.5 μg/ml puromycin (Life Technologies, A11138-02), unless stated otherwise. PDAC053 T cells were grown in serum-free ductal medium: DMEM/F12 supplemented with 0.61 g/500 mL nicotinamide (Sigma-Aldrich, 3376), 2.50 g/500 mL glucose (Sigma-Aldrich, G6152), 1:200 ITS+ (Corning, 354352), 1:20 Nu-serum IV (Corning, 355104), 100 ng/ml cholera toxin, 1 μM dexamethasone (Sigma-Aldrich, D4902), 50 nM 3,3′,5-triiodo-L-thyronine (Sigma-Aldrich, T6397) and 1× PenStrep. BELA cells were cultured using published procedures (Nat. Comm. doi: 10.1038/ncomms14750).
Fluorescence microscopy of clickable serotonin analog A3: Cells were plated on cover slips 24 h prior to the experiment. […]

[6] = tested on: BELA cells; experiment: RhoNox-M (lysosomal Fe2+ probe) flow cytometry; assay type: cell-based; conditions: 10 μM, 24 h
Description: as §2
(§3) Bodipy-C11 (Thermo Fisher Scientific, D3861) were used according to the manufacturer's protocol. RhoNox-M (in-house) was added to live cells prior to flow cytometry analysis for 1 h at a concentration of 1 μM. For the Annexin/PI assay (Thermo Fisher Scientific, V13245, manufacturer's protocol) BELA cells were treated with RSL3 in the presence or absence of 1 μM Liproxstatin-1 (Sigma-Aldrich, SML1414) or 10 μM A3 for 24 h. Cells were then washed twice with ice-cold 1×PBS and suspended in incubation buffer prior to being analyzed by flow cytometry. The manufacturer's protocol was followed. For each condition, at least 10,000 cells were counted. Data were recorded on an Attune (Thermo Fisher Scientific) and processed using FlowJo (FLOWJO, LLC).

[7] = tested on: HMLER cells; experiment: ICP-MS of total cellular iron and copper; assay type: cell-based, human; conditions: 100 nM, 3 h or 24 h
Description: All cells were grown in an incubator equilibrated at 37° C. with 5% CO2, grown to confluence and split with Trypsin/EDTA (Gibco, TRYPGIB01) once or twice a week according to confluence. HMLER cells ([…]) naturally repressing E-cadherin, obtained from human mammary epithelial cells infected with a retrovirus carrying hTERT, SV40 and the oncogenic allele H-rasV12, and HMLER CD44 and TFRC ko clones were cultured in DMEM/F12 (Thermo Fisher Scientific, 31331093) supplemented with 10% FBS (v/v) (Thermo Fisher Scientific, 10270106), 10 μg/mL insulin (Sigma-Aldrich, 10516), 0.5 μg/mL hydrocortisone (Sigma-Aldrich, H0888) and 0.5 μg/ml puromycin (Life Technologies, A11138-02), unless stated otherwise. […]
Glass vials equipped with Teflon septa were cleaned with nitric acid 65% (w/v) (VWR, Suprapur, 1.00441.0250), washed with ultrapure water (Sigma-Aldrich, 1012620500) and dried. […] Cells were then counted using an automated cell counter (Entek) and transferred in 100 μL 1×PBS to the cleaned glass vials, and samples were lyophilized using a freeze dryer (CHRIST, 22080). […] 56Fe concentrations were measured using an Agilent 7900 ICP-QMS in low-resolution mode. […] Isotopes were measured using a collision-reaction interface with helium gas (5 mL/min) to remove polyatomic interferences. […]

[8] = tested on: Cells treated with a ferroptosis inducer; experiment: BODIPY-C11 lipid peroxidation, cells treated with a ferroptosis inducer (FIG. 6a); assay type: cell-based; conditions: co-treatment with ferroptosis inducer
Description: as §3

[9] = tested on: Cells treated with a ferroptosis inducer; experiment: CellTiter-Blue cell viability with a ferroptosis inducer (FIG. 6b); assay type: cell-based; conditions: co-treatment with ferroptosis inducer
Description: Cell viability was evaluated by plating 4,000 cells/well in 96-well plates using CellTiter-Blue viability assay according to the manufacturer's protocol. CellTiter-Blue reagent (Promega, G8081) was added after 72 h treatment and cells were incubated for 2 h before recording fluorescence intensities (Eex. 560 nm; Eem. 590 nm) using a Perkin Elmer Wallac 1420 Victor2 Microplate Reader.

[10] = tested on: BELA cells; experiment: Annexin/PI flow cytometry, RSL3-treated BELA cells (FIG. 7); assay type: cell-based; conditions: various concentrations of RSL3, 10 μM A3, 24 h
Description: as §3

[11] = tested on: PDAC cells; experiment: Cell apoptosis assay with Annexin V and propidium iodide, RSL3-treated PDAC cells (FIG. 10a); assay type: cell-based; conditions: RSL3 0.1, 0.5, 2, 10 μM, compounds 10 μM, 24 h
Description: as §1
PDAC cells were seeded on 6 well plates at the density of 2×10^5 cells/well. RSL3 (0.1, 0.5, 2, 10 µM) was added along with compounds (10 μM) on the following day and after 24 h, the media was recovered and the cells were typsinated. The cells were harvested, pelleted along with the media recovered, washed with PBS, and 100 μl of 1× annexin binding buffer containing annexin V and PI (according to the manufacturer's protocol Dead Cell Apoptosis Kits with Annexin V for Flow Cytometry (Invitrogen)). Finally, PBS buffer containing 10% FBS and 1 mM of EDTA, was added for flow cytometry.

[12] = reference in cyclic voltammetry; cited from earlier work

For `C#CCOc1ccc2c(c1)c(CCN(CC#C)CC#C)cn2CC#C` [Compound A0], the “anti-ferroptotic activity (active / inactive compound)” value [1] was “inactive”, the localization in lysosomes [2] was “doesn't go to lysosomes” and the “binding / chelation of Fe^3+ (cyclic voltammetry)” value [3] was “doesn't binds to Fe^3+”.

In the case of `C#CCOc1ccc2[nH]cc(CCN(CC#C)CC#C)c2c1` [Compound A1], the “anti-ferroptotic activity (active / inactive compound)” value [1] is reported as “Active” and the localization in lysosomes [2] is reported as “localized in lysosomes”.

For `C#CCNCCc1c[nH]c2ccc(O)cc12` [Compound A3], the “colour of solution in the presence of FeCl3 and CuSO4, indicative of complex formation” value [4] was “form differently colored solutions”, the “complex formation with Fe(II), Fe(III) and Cu(II)” value [4] was “form readily complexes” and the localization in lysosomes [5] was “found to localize in lysosomes; also recorded: accumulate in lysosomes”. For the same molecule, the “RhoNox-M fluorescence (lysosomal Fe(II))” value [6] was “increase of RhoNox-M fluorescence”, the “total intracellular copper (ICP-MS)” value [7] was “increase” and the “total intracellular iron (ICP-MS)” value [7] was “increase”. The “lipid peroxidation (BODIPY-C11 fluorescence) induced by a ferroptosis inducer” value [8] was “reduces lipid peroxidation; also recorded: reduction of lipid peroxidation”, the “cell viability / cell death caused by a ferroptosis inducer” value [9] was “rescues cell death; also recorded: rescue of cell viability” and the “cell death induced by the ferroptosis inducer RSL3 (Annexin/propidium iodide)” value [10] was “protects against RSL3-induced ferroptosis; also recorded: rescued cell death”. For the same molecule, the localization in lysosomes [2] was “found to localize in lysosomes; also recorded: goes to lysosomes”, the “colocalization with other cell organelles” value ([2]; organelle antibodies) was “not on other cell organelles; also recorded: doesn't colocalize with other cell organelles” and the “protection against RSL3-induced ferroptosis (Annexin/propidium iodide)” value [11] was “protects against RSL3-induced ferroptosis”. The “binding / chelation of Fe^3+ (cyclic voltammetry)” value [3] was “chelates/binds to Fe^3+”.

With `C#CCN(CC#C)CCc1c[nH]c2ccc(O)cc12` [Compound A4] the “anti-ferroptotic activity (active / inactive compound)” value [1] was “Active” and the localization in lysosomes [2] was “localized in lysosomes”.

For `CC(=O)N(O)CCCCCNC(=O)CCC(=O)N(O)CCCCCNC(=O)CCC(=O)N(O)CCCCCN` [DFO], the “Fe^3+ chelation, known property of the reference” value [12] is given as “known Fe^3+ chelator”.

In the case of `Oc1ccc2[nH]cc(CCNC3CCCCC3)c2c1` [LC336], the “RhoNox-M fluorescence (lysosomal Fe(II))” value [6] is reported as “increase of RhoNox-M fluorescence”.

With `CC(CCCCCCC(C)NCCc1c[nH]c2ccc(O)cc12)NCCc1c[nH]c2ccc(O)cc12` (stereo not drawn) [LC357] the “RhoNox-M fluorescence (lysosomal Fe(II))” value [6] was “increase of RhoNox-M fluorescence”.

In the case of `CCCCCCCCCCNCCc1c[nH]c2ccc(O)cc12` [LT262A], the “RhoNox-M fluorescence (lysosomal Fe(II))” value [6] is reported as “increase of RhoNox-M fluorescence”.

For `CCCCNCCc1c[nH]c2ccc(O)cc12` [LT265B], the “RhoNox-M fluorescence (lysosomal Fe(II))” value [6] was “increase of RhoNox-M fluorescence”.

For `NCCc1c[nH]c2ccc(O)cc12` [Serotonin, serotonin hydrochloride], the “colour of solution in the presence of FeCl3 and CuSO4, indicative of complex formation” value [4] was “form differently colored solutions” and the “complex formation with Fe(II), Fe(III) and Cu(II)” value [4] was “form readily complexes”.
